Values quoted from earlier work as cited in patent US6815463B2, “Laulimalide derivatives” (Kosan Biosciences, Inc., priority 2001, dated 2004).

System: microtubules
Settings: for stabilization of microtubules: similar to paclitaxel, Mooberry et al. 1999, WO 01/54689

Row | SMILES | potency as stabilizer of microtubule polymerization relative to laulimalide (comparison with laulimalide) | stabilization of microtubules
1 | C=C1C[C@H](C)C[C@@H]2CC=C[C@@H](C/C=C\C(=O)O[C@H]3C[C@@H](O[C@H]3/C=C/[C@@H]3CC(C)=CCO3)[C@@H](O)[C@@H](O)C1)O2 [isolaulimalide] | less potent stabilizer of microtubule polymerization than laulimalide | potent stabilizers of microtubules
2 | C=C1C[C@H](C)C[C@@H]2CC=C[C@@H](C/C=C\C(=O)O[C@H]([C@@H](O)/C=C/[C@@H]3CC(C)=CCO3)C[C@@H]3O[C@H]3[C@@H](O)C1)O2 [laulimalide, Laulimalide] | – | potent stabilizers of microtubules
